Data from patent US11273206B2, “Targeting of pharmaceutical agents to pathologic areas using bifunctional fusion polypeptides” (Counterpoint Biomedica LLC, priority 2014, dated 2022).
Where a SMILES comes first, the peptide text is derived from it. Primed or numbered codes have the meaning given here. Where no end group is shown, it is not given here. [ ]: non-standard residue; d: D form. The star is where a group is joined. FITC = O=C1OC2(c3ccc(O)cc3Oc3cc(O)ccc32)c2ccc(NC(=S)*)cc21; FITC′ = fluorescein isothiocyanate label; PEG = not defined here

Key:
[1] = tested on: subcutaneous human pancreatic cancer xenografts; conditions: paclitaxel without aptamer; cited from earlier work
[2] = tested on: Locally Recurrent or Metastatic Breast Cancer; conditions: Phase III, once per week; cited from earlier work
[3] = tested on: subcutaneous human pancreatic cancer xenografts
collagen agarose beads = assay: Collagen-agarose column chromatography of mAb-aptamers with fluorescent Rabbit-Anti-Human Abs; assay type: binding; conditions: FIG. 7B
Collagen-Agarose beads [4] = assay: Collagen-agarose column chromatography of FITC-labeled collagen-binding constructs; conditions: increasing amounts applied to Collagen-Agarose beads, in vitro; FIG. 3B
Source text: Three fluorescein isothiocyanate (FITC)-labeled collagen-binding constructs were generated and tested. Construct 1 (ac-L1/XC-BD1/L3/FITC) had the sequence of Ac-RRGVHVGWREPSFMALSMPHGGSGK-(FITC) (SEQ ID NO: 45); Construct 2(ac-L1/XC-BD2/L3/FITC) had the sequence of Ac-RRGVHVGWREPGRMELNMPHGGSGK-(FITC) (SEQ ID NO: 46); Construct 3 (ac-L2/XC-BD2/L3/FITC) had the sequence of Ac-RRGVRVAWREPGRMELNMPHGGSGK-(FITC) (SEQ ID NO: 47). […] Increasing amounts of these constructs were applied to the chromatography columns of Collagen-Agarose beads, followed by successive washes with (1) PBS, (2) PBS/PBS, Tween-20, BSA. The retention of the constructs to the column was documented by use of a blue-light transilluminator with an amber filter; quantitative data was obtained with a Quantus fluorometer.

[5] = Serum stability (resistance to proteolysis) of mAb-aptamers; assay type: in vitro ADME; conditions: FIG. 7C
Source text: The serum stability (resistance to proteolysis) of mAb-Aptamer 1, mAb-Aptamer 2 and mAb-Aptamer 4 were further analyzed.

Collagen-Agarose beads [6] = assay: Collagen-agarose chromatography of RNA-Apts with Oregon Green 488 labeled oligonucleotides; assay type: binding; conditions: for retention of labeled oligonucleotides on collagen-agarose mini-columns: FIG. 10C; for depletion of fluorescently labeled oligonucleotides from the column eluates: increasing amounts of RNA-Apt, FIG. 10B
Experimental: Short oligonucleotides labeled with Oregon Green 488 were incubated with increasing amounts of RNA-Apt 07 or RNA-Apt 08 in PBS for 30 min at 30° C. and then applied to the chromatography column of collagen-agarose beads, followed by successive washes with (1) PBS, (2) PBS/PBS, Tween-20, BSA. The retention to the column was documented by use of a blue-light transilluminator with an amber filter; quantitative data was obtained with a Quantus fluorometer.

[7] = Serum stability (resistance to proteolysis) of Tx-Apts; assay type: in vitro ADME; conditions: FIG. 4C
subcutaneous tumors = assay: Tumor targeting of FITC-labeled collagen-binding construct after intravenous infusion; assay type: in vivo; conditions: intravenous infusion into the tail vein of nude mice; FIGS. 3C-3D

**Q.** Which “normal effective dose of paclitaxel in mice” value [1] does the source give for `CC(=O)O[C@H]1C(=O)[C@@]2(C)[C@H]([C@H](OC(=O)c3ccccc3)[C@]3(O)C[C@H](OC(=O)[C@H](O)[C@@H](NC(=O)c4ccccc4)c4ccccc4)C(C)=C1C3(C)C)[C@]1(OC(C)=O)CO[C@@H]1C[C@@H]2O` [paclitaxel] here?
**A.** The value was 10 mg/kg.

**Q.** What about the “clinical performance compared with Abraxane” value [2] of the same compound?
**A.** Its value is “just as good or better than Abraxane”.

**Q.** And the “toxicity compared with Abraxane” value [2]?
**A.** The value was “significantly less toxicity”.

**Q.** What about the “active dose as fraction of the low metronomic doses commonly used” value ([3]; targeted paclitaxel treated mice) of the same compound?
**A.** The value was 1/10.

**Q.** And the “active dose as fraction of the normal effective dose of paclitaxel in mice” value ([3]; used with Taxol-aptamer)?
**A.** Its value is 1/50.

**Q.** What about the “dose at which paclitaxel exhibited anti-angiogenic activity” value ([3]; used with Taxol-aptamer, FIG. 6C) of the same compound?
**A.** The value was 0.2 mg/kg.

**Q.** For “r-r-GVHVGWREPGRMELNMPHGGSGGHWRGWVAGGSGGHWRGWV-a-a ([dR][dR]GVHVGWREPGRMELNMPHGGSGGHWRGWVAGGSGGHWRGWV[dA][dA]) [mAb-Aptamer 2]”, which “binding of antibodies to the collagen beads” value (collagen agarose beads) is on record?
**A.** Its value is “higher binding”.

**Q.** With “Ac-RRGVHVGWREPSFMALSMPHGGSGK-(FITC) (Ac-RRGVHVGWREPSFMALSMPHGGSGK(FITC′)) [Construct 1]” as the compound, how does the “binding to collagen (retention of the constructs to the column)” value (Collagen-Agarose beads [4]) read?
**A.** The value was “bound to collagen in a dose dependent manner”.

**Q.** Which “binding of antibodies to the collagen beads” value (collagen agarose beads) does the source give for “(PEG)-[C-A-R-R-G-V-H-V-G]-W-R-E-P-G-R-M-E-L-N-M-P-H-[G-G-S-G-G]-H-W-R-G-W-V-A-[G-G-S-G-G]-H-W-R-G-W-V-A-p-t ({PEG}-CARRGVHVGWREPGRMELNMPHGGSGGHWRGWVAGGSGGHWRGWVA[dP][dT]; reading uncertain; also: printed as (PEG)-[C-A-R-R-G-V-H-V-G]-W-R-E-P-G-R-M-E-L-N-M-P-H-[G-G-S-G-G]-H-W-R-G-W-V-A-[G-G-S-G-G]-H-W-R-G-W-V-A-p-t) [mAb-Aptamer 4]” here?
**A.** The value was “higher binding”.

**Q.** And the “serum stability (resistance to proteolysis)” value [5]?
**A.** Its value is “greatest serum stability”.

**Q.** What does the source list for “RRRRRRRRRRRGVHVGWREPSFMALSMPHGG [RNA-Apt 07]”?
**A.** retention of labeled oligonucleotides on collagen-agarose mini-columns (Collagen-Agarose beads [6]): retaining the labeled oligonucleotides on the collagen-agarose mini-columns; depletion of fluorescently labeled oligonucleotides from the column eluates (Collagen-Agarose beads [6]): depleted fluorescently labeled-oligonucleotides from the eluates

**Q.** What does the source list for “RRGVHVGWREPSFMALSMPHGGRRRRRRRRR [RNA-Apt 08]”?
**A.** retention of labeled oligonucleotides on collagen-agarose mini-columns (Collagen-Agarose beads [6]): retaining the labeled oligonucleotides on the collagen-agarose mini-columns; depletion of fluorescently labeled oligonucleotides from the column eluates (Collagen-Agarose beads [6]): depleted fluorescently labeled-oligonucleotides from the eluates

**Q.** For “Ac-[dR][dR]GVHVGWREPGRMELNMPHGGSGRGVGIMKACGRTRHTVR[dM]G (N-terminus assumed) [Tx-Apt2, Ac-[r-r-G-V-H-V-G]-W-R-E-P-G-R-M-E-L-N-M-P-H-[G-G-S-G]-R-G-V-G-I-M-K-A-C-G-R-T-R-H-T-V-R-m-G]”, which “serum stability (resistance to proteolysis) over time” value [7] is on record?
**A.** The value was “most stable”.

**Q.** For `CSCC[C@H](NC(=O)[C@H](CCCNC(=N)N)NC(=O)CNC(=O)[C@@H]1CCCN1C(=O)[C@H](CCC(=O)O)NC(=O)[C@H](CCCNC(=N)N)NC(=O)[C@H](Cc1c[nH]c2ccccc12)NC(=O)CNC(=O)[C@@H](NC(=O)[C@H](Cc1c[nH]cn1)NC(=O)[C@@H](NC(=O)CNC(=O)[C@H](CCCNC(=N)N)NC(=O)[C@H](CCCNC(=N)N)NC(C)=O)C(C)C)C(C)C)C(=O)N[C@@H](CCC(=O)O)C(=O)N[C@@H](CC(C)C)C(=O)N[C@@H](CC(N)=O)C(=O)N[C@@H](CCSC)C(=O)N1CCC[C@H]1C(=O)N[C@@H](Cc1c[nH]cn1)C(=O)NCC(=O)NCC(=O)N[C@@H](CO)C(=O)NCC(=O)N[C@@H](CCCCNC(=S)Nc1ccc2c(c1)C(=O)OC21c2ccc(O)cc2Oc2cc(O)ccc21)C(=O)O` [Construct 2, Ac-RRGVHVGWREPGRMELNMPHGGSGK-(FITC)] (Ac-RRGVHVGWREPGRMELNMPHGGSGK(FITC)-OH), which “targeting to subcutaneous tumors (fluorescence)” value (subcutaneous tumors) is on record?
**A.** Its value is “efficiently targeted to subcutaneous tumors”.
